ChEMBL document CHEMBL1144313, “Synthesis of ring-substituted 4-aminoquinolines and evaluation of their antimalarial activities” (Bioorg Med Chem Lett, 2005)

What was measured:
Type in all cases: functional, organism-based
Plasmodium falciparum [1] = test: Effective concentration for Plasmodium falciparum 3D7
Plasmodium falciparum [2] = test: Effective concentration for Plasmodium falciparum W2
Plasmodium falciparum [3] = test: Effective concentration against Plasmodium falciparum W2

Structure (SMILES) | EC50 (Plasmodium falciparum [1]; Plasmodium falciparum) | EC50 (Plasmodium falciparum [2]) | EC50 (Plasmodium falciparum [3]) | EC50 (Plasmodium falciparum [1])
CCN(CC)CCCNc1ccnc2cc(Cl)ccc12 | 2 nM | 23 nM |  | 
CCN(CC)CCCNc1ccnc2cc(C(F)(F)F)ccc12 | 33 nM | 62 nM |  | 
CCN(CC)CCCC(C)Nc1ccnc2cc(Cl)c(C)cc12 (stereo unspecified) | 32 nM | 270 nM |  | 
CCN(CC)CCCNc1ccnc2cc(Oc3ccccc3)ccc12 | 34 nM | 71 nM |  | 
CCN(CC)CCCNc1ccnc2ccc(OC(F)(F)F)cc12 | 82 nM | 102 nM |  | 
CCN(CC)CCCC(C)Nc1ccnc2ccc(OC(F)(F)F)cc12 (stereo unspecified) | 62 nM |  |  | 
CCN(CC)CCCC(C)Nc1c2ccc(Cl)cc2nc2ccc(OC)cc12 (stereo in doubt; form 1) [QUINACRINE] | 5 nM |  | 8 nM | 
CCN(CC)CCCC(C)Nc1c2ccc(Cl)cc2nc2ccc(OC)cc12 (stereo in doubt; form 2) [QUINACRINE] |  |  | 32 nM | 8 nM

Results, then the compound that gave them:

EC50 (Plasmodium falciparum [1]; Plasmodium falciparum) | EC50 (Plasmodium falciparum [2]) | EC50 (Plasmodium falciparum [3]) | EC50 (Plasmodium falciparum [1]) | Structure (SMILES)
51 nM | 290 nM |  |  | CCN(CC)CCCC(C)Nc1ccnc2ccc(C(F)(F)F)cc12 (stereo unspecified)
90 nM | 125 nM |  |  | CCN(CC)CCCNc1ccnc2ccc(C(F)(F)F)cc12
9 nM | 50 nM |  |  | CCN(CC)CCCNc1ccnc2cc(Cl)c(C)cc12
